The text below walks through data of US8906852B2 (MethylGene Inc., priority 2010, dated 2014).

The target in the test is T1, VEGFR/KDR (Homo sapiens, UniProt P35968).
T1 construct: made in house; host or cells: Sf9 cells (Spodoptera frugiperda), baculovirus
T1 sequence (P35968 806-1356): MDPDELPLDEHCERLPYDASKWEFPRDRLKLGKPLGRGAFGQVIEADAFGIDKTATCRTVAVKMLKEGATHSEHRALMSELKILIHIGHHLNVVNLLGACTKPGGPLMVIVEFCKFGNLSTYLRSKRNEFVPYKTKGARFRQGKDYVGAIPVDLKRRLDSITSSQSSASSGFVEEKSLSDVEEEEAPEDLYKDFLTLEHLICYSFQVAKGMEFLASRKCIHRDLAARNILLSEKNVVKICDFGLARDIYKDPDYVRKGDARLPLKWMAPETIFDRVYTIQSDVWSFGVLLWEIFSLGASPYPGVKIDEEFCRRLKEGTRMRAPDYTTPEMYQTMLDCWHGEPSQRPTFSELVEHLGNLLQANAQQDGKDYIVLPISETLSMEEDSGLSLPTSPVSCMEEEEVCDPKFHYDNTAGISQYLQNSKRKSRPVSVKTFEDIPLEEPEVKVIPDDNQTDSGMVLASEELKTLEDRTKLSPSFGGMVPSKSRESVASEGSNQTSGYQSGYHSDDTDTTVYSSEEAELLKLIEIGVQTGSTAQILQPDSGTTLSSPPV
In words: VEGFR/KDR kinase inhibition, DELFIA assay. The note with it: ATP 0.6 uM (2x Km), enzyme 5 nM. The class given is biochemical. Summed up:
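DELFIA time-resolved fluorescence readout using Europium-tagged anti-phosphotyrosine antibody after EDTA stop. Kinase reaction on plate-bound poly(Glu4,Tyr) ran 10-30 min at 30° C with 5 nM enzyme and 0.6 uM ATP (2× Km), following 4 min on-ice pre-incubation with compound; IC50 over a concentration range.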
On to `C[C@@H]1CN(Cc2ccc(-c3cc4nccc(Oc5ccc(NC(=O)NC6CC6)cc5F)c4s3)nc2)C[C@H](C)N1` [Compound 530, 1-cyclopropyl-3-(4-(2-(5-(((3S,5R)-3,5-dimethylpiperazin-1-yl)methyl)pyridin-2-yl)thieno[3,2-b]-pyridin-7-yloxy)-3-fluorophenyl)urea], for which the IC50 was below 50 nM. Compound `O=C(Nc1ccc(Oc2ccnc3cc(-c4cn(CC(=O)N5CCNCC5)nn4)sc23)c(F)c1)NC1CC1` [Compound 389, 1-Cyclopropyl-3-(3-fluoro-4-(2-(1-(2-oxo-2-(piperazin-1-yl)ethyl)-1H-1,2,3-triazol-4-yl)thieno[3,2-b]pyridin-7-yloxy)phenyl)urea] had an IC50 below 50 nM.

`CN(C)CCn1cc(-c2cc3nccc(Oc4ccc(NC(=O)NC5CC5)cc4F)c3s2)nn1` [Compound 367] registered an IC50 of 50 to 100 nM. The result for `CCOC(Nc1ccc(Oc2ccnc3cc(-c4ccc(CNCCOC)cn4)sc23)c(F)c1)C(F)(F)F` (centres unmarked) [Compound 14, N-(1-ethoxy-2,2,2-trifluoroethyl)-3-fluoro-4-(2-(5-((2-methoxyethylamino)-methyl)pyridin-2-yl)thieno[3,2-b]pyridin-7-yloxy)aniline] reads at least 250 nM; that for `O=C(O)CCCN1CCN(Cc2ccc(-c3cc4nccc(Oc5ccc(NC(=O)NC6CC6)cc5F)c4s3)nc2)CC1` [Compound 519, 4-(4-((6-(7-(4-(3-cyclopropylureido)-2-fluorophenoxy)thieno[3,2-b]pyridin-2-yl)pyridin-3-yl)methyl)piperazin-1-yl)butanoic acid], below 50 nM.

For `COCCN(Cc1ccc(-c2cc3nccc(Oc4ccc(NC(=O)NC5CC5)cc4F)c3s2)nc1)C(=O)[C@@H](N)C(C)(C)C` [Compound 88, (S)-2-amino-N-((6-(7-(4-(3-cyclopropylureido)-2-fluorophenoxy)thieno[3,2-b]pyridin-2-yl)pyridin-3-yl)methyl)-N-(2-methoxyethyl)-3,3-dimethylbutanamide], the half-maximal inhibitory concentration (IC50) is below 50 nM. The result for `O=C(Nc1ccc(Oc2ccnc3cc(-c4ccc(CN5CCCC(C(=O)NCCO)C5)cn4)sc23)c(F)c1)NC1CC1` (centres unmarked) [Compound 492, 1-((6-(7-(4-(3-cyclopropylureido)-2-fluorophenoxy)thieno[3,2-b]pyridin-2-yl)pyridin-3-yl)methyl)-N-(2-hydroxyethyl)piperidine-3-carboxamide] reads below 50 nM. Under “1-(2-(6-(7-(2-fluoro-4-nitrophenoxy)thieno[3,2-b]pyridin-2-yl)pyridin-3-yl)ethyl)pyrrolidin-2-one [Compound 293]” stands below 50 nM; under `O=C(CCO)NC1CCN(Cc2ccc(-c3cc4nccc(Oc5ccc(NC(=O)NC6CC6)cc5F)c4s3)nc2)CC1` [Compound 349], below 50 nM. Under `CS(=O)(=O)c1cccc(NC(=O)Nc2ccc(Oc3ccnc4cc(-c5ccc(C(=O)N6CCCC6)cc5)sc34)c(F)c2)c1` [Compound 130, 1-(3-fluoro-4-(2-(4-(pyrrolidine-1-carbonyl)phenyl)thieno[3,2-b]pyridin-7-yloxy)phenyl)-3-(3-(methylsulfonyl)phenyl)urea] stands below 50 nM; under `O=C(Nc1ccc(Oc2ccnc3cc(-c4ccc(C(=O)O)cn4)sc23)c(F)c1)NC1CC1` [Compound 225, 6-(7-(4-(3-Cyclopropylureido)-2-fluorophenoxy)thieno[3,2-b]pyridin-2-yl)nicotinic acid], below 50 nM.

The compound `CNC1CCN(Cc2ccc(-c3cc4nccc(Oc5ccc(NC(=O)NC6CC6)cc5F)c4s3)nc2)CC1` [Compound 401] yielded an IC50 below 50 nM. Under `O=C(Nc1ccc(Oc2ccnc3cc(-c4ccc(CN5CCN(CCN6CCOCC6)CC5)cn4)sc23)c(F)c1)NC1CC1` [Compound 54-A, 1-cyclopropyl-3-(3-fluoro-4-(2-(5-((4-(2-morpholinoethyl)piperazin-1-yl)methyl)pyridin-2-yl)thieno[3,2-b]pyridin-7-yloxy)phenyl)urea] stands below 50 nM; under `O=C(Nc1ccc(Oc2ccnc3cc(-c4ccc(C(=O)N5CCCC5)cc4)sc23)c(F)c1)NC1CC1` [Compound 129, 1-cyclopropyl-3-(3-fluoro-4-(2-(4-(pyrrolidine-1-carbonyl)phenyl)thieno[3,2-b]pyridin-7-yloxy)phenyl)urea], below 50 nM. Under `C=CC(=O)N(C)C1CCN(Cc2ccc(-c3cc4nccc(Oc5ccc(NC(=O)NC6CC6)cc5F)c4s3)nc2)CC1` [Compound 412] stands below 50 nM; under `O=C(O)CCCNCc1ccc(-c2cc3nccc(Oc4ccc(NC(=O)NC5CC5)c(F)c4F)c3s2)nc1` [Compound 168, 4-((6-(7-(4-(3-cyclopropylureido)-2,3-difluorophenoxy)thieno[3,2-b]pyridin-2-yl)pyridin-3-yl)methylamino)butanoic acid], below 50 nM. Under `O=C(Nc1ccc(Oc2ccnc3cc(-c4cn(CCCN5CCOCC5)nn4)sc23)c(F)c1)NC1CC1` [Compound 385] stands below 50 nM. The compound `CC(=O)O[C@@H]1CCN(C(=O)c2cc3nccc(Oc4ccc(NC(=O)NC5CC5)cc4F)c3s2)C1` [Compound 467, (R)-1-(7-(4-(3-cyclopropylureido)-2-fluorophenoxy)thieno[3,2-b]pyridine-2-carbonyl)pyrrolidin-3-yl acetate] registered a concentration for half-maximal inhibition (IC50) below 50 nM. Consider `O=C(Nc1ccc(Oc2ccnc3cc(-c4ccc(CN5CCN(CCOCCO)CC5)cn4)sc23)c(F)c1)NC1CC1` [Compound 327], for which the IC50 was below 50 nM. `O=C(Nc1ccc(Oc2ccnc3cc(-c4cnn(CCN5CCCC5=O)c4)sc23)c(F)c1)NC1CC1` [Compound 166, 1-cyclopropyl-3-(3-fluoro-4-(2-(1-(2-(2-oxopyrrolidin-1-yl)ethyl)-1H-pyrazol-4-yl)thieno[3,2-b]pyridin-7-yloxy)phenyl)urea] yielded an IC50 below 50 nM. Under `O=C(Nc1ccc(Oc2ccnc3cc(-c4ccc(CCN5CCOCC5)cn4)sc23)c(F)c1)NC1CC1` [Compound 178, 1-cyclopropyl-3-(3-fluoro-4-(2-(5-(2-morpholinoethyl)pyridin-2-yl)thieno[3,2-b]pyridin-7-yloxy)phenyl)urea] stands below 50 nM; under `CC(C)[C@H](N)C(=O)OCCN1CCN(Cc2ccc(-c3cc4nccc(Oc5ccc(NC(=O)NC6CC6)cc5F)c4s3)nc2)CC1` [Compound 79, (S)-2-(4-((6-(7-(4-(3-cyclopropylureido)-2-fluorophenoxy)thieno[3,2-b]pyridin-2-yl)pyridin-3-yl)methyl)piperazin-1-yl)ethyl 2-amino-3-methylbutanoate], below 50 nM.

As to `COCCNCc1ccc(-c2cc3nccc(Oc4ccc(NC(CC(=O)Nc5ccc(F)cc5)C(F)(F)F)cc4F)c3s2)nc1` (centres unmarked) [Compound 20, 4,4,4-trifluoro-3-(3-fluoro-4-(2-(5-((2-methoxyethylamino)methy)pyridin-2-yl)thieno[3,2-b]pyridin-7-yloxy)phenylamino)-N-(4-fluorophenyl)butanamide], the IC50 is below 50 nM. The result for `O=C(Nc1ccc(Oc2ccnc3cc(C(=O)N4CCOCC4)sc23)c(F)c1)NC1CC1` [Compound 450] reads below 50 nM; that for `CC(=O)OCC(=O)N(C)C1CCN(Cc2ccc(-c3cc4nccc(Oc5ccc(NC(=O)NC6CC6)cc5F)c4s3)nc2)CC1` [Compound 411], below 50 nM; that for `CCC(=O)N(CCOC)Cc1ccc(-c2cc3nccc(Oc4ccc(NC(=O)NC5CC5)cc4F)c3s2)nc1` [Compound 86, N-((6-(7-(4-(3-cyclopropylureido)-2-fluorophenoxy)thieno[3,2-b]pyridin-2-yl)pyridin-3-yl)methyl)-N-(2-methoxyethyl)propionamide], below 50 nM.

In turn, `O=C(Nc1ccc(Oc2ccnc3cc(-c4ccc(CN5CCN(C(=O)[C@@H](O)CO)CC5)cn4)sc23)c(F)c1)NC1CC1` [Compound 536] returned an IC50 below 50 nM. As to `CCCNC(=O)NC1CCN(Cc2ccc(-c3cc4nccc(Oc5ccc(NC(=O)NC6CC6)cc5F)c4s3)nc2)CC1` [Compound 354], the 50% inhibitory concentration (IC50) is below 50 nM. `N#CCCN1CCN(Cc2ccc(-c3cc4nccc(Oc5ccc(NC(=O)NC6CC6)cc5F)c4s3)nc2)CC1` [Compound 57, 1-(4-(2-(5-((4-(2-cyanoethyl)piperazin-1-yl)methyl)pyridin-2-yl)thieno[3,2-b]-pyridin-7-yloxy)-3-fluorophcnyl)-3-cyclopropylurea] displayed an IC50 below 50 nM. `CCOC(=O)CCN1CCN(C(=O)c2ccc(-c3cc4nccc(Oc5ccc(NC(=O)NC6CC6)cc5F)c4s3)nc2)CC1` [Compound 236, ethyl 3-(4-(6-(7-(4-(3-cyclopropylureido)-2-fluorophenoxy)thieno-[3,2-b]pyridin-2-yl)nicotinoyl)piperazin-1-yl)propanoate] yielded a concentration for half-maximal inhibition (IC50) below 50 nM. The result for `CC(=O)O[C@H]1CCN(C(=O)c2cc3nccc(Oc4ccc(NC(=O)NC5CC5)cc4F)c3s2)C1` [Compound 468, (S)-1-(7-(4-(3-cyclopropylureido)-2-fluorophenoxy)thieno[3,2-b]pyridine-2-carbonyl)pyrrolidin-3-yl acetate] reads below 50 nM; that for `CC(C)(C)C(=O)O[C@@H]1CCCN(C(=O)c2cc3nccc(Oc4ccc(NC(=O)NC5CC5)cc4F)c3s2)C1` [Compound 451], at least 250 nM.

`COCCN(Cc1ccc(-c2cc3nccc(Oc4ccc(NC(=O)NC5CC5)cc4F)c3s2)nc1)C(=O)CNC(=O)CN` [Compound 92-A, 2-(2-aminoacetamido)-N-((6-(7-(4-(3-cyclopropylureido)-2-fluorophenoxy)thieno[3,2-b]pyridin-2-yl)pyridin-3-yl)methyl)-N-(2-methoxyethyl)acetamide]: the IC50 is below 50 nM.

On to `CC(C)(C)C(=O)O[C@@H]1CCN(C(=O)c2cc3nccc(Oc4ccc(NC(=O)NC5CC5)cc4F)c3s2)C1` [Compound 443], for which the IC50 is at least 250 nM.

`N[C@@H]1CCN(Cc2ccc(-c3cc4nccc(Oc5ccc(NC(=O)NC6CC6)cc5F)c4s3)nc2)C1=O` [Compound 109, (R)-1-(4-(2-(5-((3-amino-2-oxopyrrolidin-1-yl)methyl)pyridin-2-yl)thieno[3,2-b]pyridin-7-yloxy)-3-fluorophenyl)-3-cyclopropylurea] came in with an IC50 below 50 nM.

In general, IC50 refers to the concentration at which inhibition is half-maximal.
